Measurements from PubChem BioAssay (NCI).
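How tested: cells in 96-well plates exposed to compound for 48 hours at five concentrations. GI50 = concentration required for 50% inhibition of growth. TGI marks complete inhibition of growth.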

Legend:
Assay in all cases: NCI tumour cell line growth inhibition, 48 h
SF-268 CNS = tested on: SF-268 CNS
HL-60(TB) leukemia = tested on: HL-60(TB) leukemia
HCC-2998 colon = tested on: HCC-2998 colon
UACC-62 melanoma = tested on: UACC-62 melanoma
SK-MEL-28 melanoma = tested on: SK-MEL-28 melanoma
HT29 colon = tested on: HT29 colon
OVCAR-5 ovarian = tested on: OVCAR-5 ovarian
NCI-H460 lung = tested on: NCI-H460 lung
NCI-H522 lung = tested on: NCI-H522 lung
DU-145 prostate = tested on: DU-145 prostate

| SMILES | TGI (SF-268 CNS) [µM] | TGI (HL-60(TB) leukemia) [µM] | TGI (HCC-2998 colon) [µM] | TGI (UACC-62 melanoma) [µM] | TGI (SK-MEL-28 melanoma) [µM] | TGI (HT29 colon) [µM] | TGI (OVCAR-5 ovarian) [µM] | TGI (NCI-H460 lung) [µM] | TGI (NCI-H522 lung) [µM] | GI50 (SF-268 CNS) [µM] | GI50 (HCC-2998 colon) [µM] | GI50 (UACC-62 melanoma) [µM] | GI50 (SK-MEL-28 melanoma) [µM] | GI50 (DU-145 prostate) [µM] | TGI (DU-145 prostate) [µM] | GI50 (HT29 colon) [µM] | GI50 (OVCAR-5 ovarian) [µM] | GI50 (NCI-H460 lung) [µM] | GI50 (NCI-H522 lung) [µM] | GI50 (HL-60(TB) leukemia) [µM] |
| --- | --- | --- | --- | --- | --- | --- | --- | --- | --- | --- | --- | --- | --- | --- | --- | --- | --- | --- | --- | --- |
| Cc1ccc(/C=C/C(=O)c2sc(-c3nc(C)c(C(=O)/C=C/c4ccc(C)cc4)s3)nc2C)cc1 | > 100 | > 100 | > 100 | > 100 | > 100 | > 100 | > 100 | > 100 | > 100 |  |  |  |  |  |  |  |  |  |  |  |
| Cc1cc(Cl)ccc1NC(=O)C(=O)Cc1nc2ccccc2o1 | > 100 | > 100 | > 100 | > 100 | > 100 | > 100 | > 100 | > 100 | > 100 |  |  |  |  |  |  |  |  |  |  |  |
| O=C(Nc1nc(=S)c2c(ncn2CCOC(=O)c2ccccc2)[nH]1)c1ccccc1 | 39.3 | > 100 | > 100 | > 100 | > 100 | > 100 | > 100 | > 100 | 68.1 |  |  |  |  |  |  |  |  |  |  |  |
| COc1ccc2[nH]cc(C3(c4c[nH]c5ccc(OC)cc45)C(=O)Nc4ccc(F)cc43)c2c1 | 12.7 |  | 8.97 | 6.1 | 6.75 | 6.14 | 8.93 | 5.17 | 3.77 | 3.17 | 2.93 | 1.98 | 2.29 | 3.71 | 13.1 | 2.44 | 2.61 | 2.3 | 1.81 |  |
| CN(C)CC1CCCC/C1=N/OC(=O)c1ccc(Cl)cc1 (stereo unspecified) | > 100 | > 100 | > 100 | > 100 | > 100 | > 100 | > 100 | > 100 | > 100 |  |  |  |  |  |  |  |  |  |  |  |
| Cc1cc(N(CCC#N)CCC#N)ccc1N=Nc1ccc(C(=O)O)cc1 | > 100 |  | > 100 | > 100 | > 100 | > 100 | > 100 |  | > 100 |  |  |  |  |  |  |  |  |  |  |  |
| COc1ccc2c(c1)C(=O)c1c-2c(N2CCN(C(=O)CNCCNCCO)CC2)nc2ccccc12 | 9.38 |  | 7.58 | 8.64 | 3.54 | 3.05 | 31 | 4.14 | 4.08 | 2.97 | 2.58 | 2.82 | 2.02 | 6.17 | 18.4 | 1.61 | 15.4 | 1.94 | 1.81 |  |
| CCOC(=O)C(=[N+]=[N-])[Si](C)(C)C | 59.7 |  | > 100 | > 100 | 45.6 | > 100 | > 100 | > 100 |  |  |  |  |  |  |  |  |  |  |  |  |
| NC(=O)C12CC3CC(CC(F)(C3)C1)C2 |  | > 100 | > 100 | > 100 | > 100 | > 100 | > 100 | > 100 | > 100 |  |  |  |  |  |  |  |  |  |  |  |
| CCN1CCC(O)(c2ccc(OC)cc2)C(C(=O)c2ccc(OC)cc2)C1 (stereo unspecified) | 41.8 | 46.9 | 41.2 | 32.2 | 10.6 | 48.1 | 32.3 | 59.5 | 4.06 |  |  |  |  |  |  |  |  |  |  |  |
| Cc1ccc(NC(=O)CCc2cc(C(C)(C)C)nc(=S)[nH]2)cc1C | > 100 | > 100 | > 100 | > 100 | > 100 | > 100 | > 100 | > 100 | > 100 |  |  |  |  |  |  |  |  |  |  |  |
| CO/N=C(\COc1ccc2c(c1)oc(=O)c1cc(OC)ccc12)c1ccc(OC)cc1 | > 100 |  | > 100 | > 100 | > 100 | > 100 | > 100 | > 100 | > 100 | > 100 | > 100 | > 100 | > 100 | > 100 | > 100 | > 100 | > 100 | > 100 | > 100 |  |
| OCC1OC(c2nc(C3=NCCCN3)cs2)C(O)C1O (stereo unspecified) | > 100 | > 100 | > 100 | > 100 | > 100 | > 100 | > 100 | > 100 | > 100 |  |  |  |  |  |  |  |  |  |  |  |
| [N-]=[N+]=N[C@H]1C[C@@H](CO)O[C@H]1n1cnc2c(N)ncnc21 | > 100 | > 100 | > 100 |  | > 100 | > 100 | > 100 | > 100 | > 100 |  |  |  |  |  |  |  |  |  |  |  |
| CCCc1nc(NC#N)nc(C(=O)Nc2ccccc2)c1CC | > 100 | > 100 | > 100 | > 100 | > 100 | > 100 | > 100 | > 100 | > 100 |  |  |  |  |  |  |  |  |  |  |  |
| CC1c2c(Cl)nc3ccccc3c2Oc2c1c(Cl)nc1ccccc21 | > 100 | > 100 | > 100 |  | > 100 | > 100 | > 100 | > 100 | > 100 |  |  |  |  |  |  |  |  |  |  |  |

| SMILES | TGI (SF-268 CNS) [µM] | TGI (HL-60(TB) leukemia) [µM] | TGI (HCC-2998 colon) [µM] | TGI (UACC-62 melanoma) [µM] | TGI (SK-MEL-28 melanoma) [µM] | TGI (HT29 colon) [µM] | TGI (OVCAR-5 ovarian) [µM] | TGI (NCI-H460 lung) [µM] | TGI (NCI-H522 lung) [µM] | GI50 (SF-268 CNS) [µM] | GI50 (HCC-2998 colon) [µM] | GI50 (UACC-62 melanoma) [µM] | GI50 (SK-MEL-28 melanoma) [µM] | GI50 (DU-145 prostate) [µM] | TGI (DU-145 prostate) [µM] | GI50 (HT29 colon) [µM] | GI50 (OVCAR-5 ovarian) [µM] | GI50 (NCI-H460 lung) [µM] | GI50 (NCI-H522 lung) [µM] | GI50 (HL-60(TB) leukemia) [µM] |
| --- | --- | --- | --- | --- | --- | --- | --- | --- | --- | --- | --- | --- | --- | --- | --- | --- | --- | --- | --- | --- |
| O=C(/C=C/c1cccc2ccccc12)c1ccccc1Cl | 36.5 | 19.4 | 28.4 | 27.3 | 34 | 26.4 |  | 29.2 | 27.5 |  |  |  |  |  |  |  |  |  |  |  |
| COc1ccc(CC2NCCc3c2[nH]c2ccccc32)cc1 (stereo unspecified) | > 100 | 53.5 | 48.3 | > 100 | > 100 | > 100 | > 100 | > 100 |  |  |  |  |  |  |  |  |  |  |  |  |
| CCC[CH2][Sn]([Cl])([CH2]CCC)[CH2]CCC | 0.314 | 0.351 |  | 0.373 | 0.269 | 0.143 | 0.248 | 0.298 | 0.27 | 0.148 |  | 0.135 | 0.139 |  |  | 0.0396 | 0.117 | 0.13 | 0.116 | 0.121 |
| CCC(C)COC(=O)c1ccc(N=Cc2ccc(C=Nc3ccc(C(=O)OCC(C)CC)cc3)cc2)cc1 (stereo unspecified) | > 100 | > 100 | > 100 | > 100 | > 100 | > 100 | > 100 | > 100 | > 100 |  |  |  |  |  |  |  |  |  |  |  |
| Cc1[nH]c2ccccc2c1C(=O)/C=C/c1ccccc1O | > 100 | > 100 | > 100 | > 100 | > 100 | > 100 | > 100 | > 100 | > 100 |  |  |  |  |  |  |  |  |  |  |  |
| O=C1/C(=C/c2ccc3c(c2)OCO3)SC2C=Nc3ccccc3N12 (stereo unspecified) | > 100 |  | > 100 | > 100 | > 100 | > 100 | > 100 | > 100 | > 100 |  |  |  |  |  |  |  |  |  |  |  |
| O=C(CCc1n[nH]c(=S)o1)Nc1ccccc1C(F)(F)F | > 100 | > 100 | > 100 | > 100 | > 100 | > 100 | > 100 | > 100 | > 100 |  |  |  |  |  |  |  |  |  |  |  |
| COc1cccc(C2=NC(C(C)C)CO2)c1 (stereo unspecified) | > 100 | > 100 | > 100 | > 100 | > 100 | > 100 | > 100 | > 100 | > 100 |  |  |  |  |  |  |  |  |  |  |  |
| CCOc1ccc(NC(=O)C(=O)CC(=O)c2c(C)n([O-])c3ccccc3[n+]2=O)cc1 | > 100 | > 100 | > 100 | > 100 | > 100 | > 100 | > 100 | > 100 | > 100 |  |  |  |  |  |  |  |  |  |  |  |
| O=C1/C(=C/c2ccc(Cl)cc2)CCC1CCN1CCOCC1 (stereo unspecified) | > 100 | 85.2 | > 100 | > 100 | > 100 | > 100 | > 100 | > 100 |  |  |  |  |  |  |  |  |  |  |  |  |
| CC12CP(=O)(c3ccccc3)CC1C2(Cl)Cl (stereo unspecified) |  |  | > 100 | > 100 | > 100 | > 100 |  | > 100 | > 100 |  |  |  |  |  |  |  |  |  |  |  |
| CC(=O)Oc1c2c(c(O)c3ccccc13)C(n1cnc3c(ncn3C3OC(CO)C4OC(C)(C)OC43)c1=N)CCC2 (stereo unspecified) | 30.7 | 22.3 | 28.4 | 29 | 31.8 | 29.2 | 35.9 | 62.4 | 19.3 |  |  |  |  |  |  |  |  |  |  |  |
| O=c1ccn([C@H]2CSC[C@@H](CO)C2)c(=O)[nH]1 | > 100 | > 100 | > 100 | > 100 | > 100 | > 100 | > 100 | > 100 | > 100 |  |  |  |  |  |  |  |  |  |  |  |
| C1CN2CCN3CCN4CCN1[P+]243 |  | > 100 | > 100 | > 100 | > 100 | > 100 | > 100 | > 100 | > 100 |  |  |  |  |  |  |  |  |  |  |  |
| COC(=O)C(Cc1nc2ccc(Cl)cc2[nH]c1=O)/C(=N\N)C(=O)Nc1cc(C)c(Cl)cc1S(=O)(=O)O (stereo unspecified) | > 100 |  | > 100 | > 100 | > 100 | > 100 | > 100 | > 100 | > 100 |  |  |  |  |  |  |  |  |  |  |  |
| CCOc1ccc(NC(=O)CC#N)cc1 | > 100 | > 100 | > 100 | > 100 | > 100 | > 100 | > 100 | > 100 | > 100 |  |  |  |  |  |  |  |  |  |  |  |
